Values of other authors, collected in patent US20240016419A1, “ELECTROCHEMICAL GLUCOSE SENSING BY EQUILIBRIUM GLUCOSE BINDING TO GENETICALLY ENGINEERED GLUCOSE BINDING PROTEINS” (Cercacor Laboratories, Inc., priority 2022, published 2024).

- binding constant shift (A213R versus wild-type GGBP, from 0.2 μM to 1 mM): 5000 fold
- Kd (binding to glucose, read-out: binding constant): 1000 µM
Substance: A213R: GGBP with Alanine residue at the 213 position changed to an Arginine residue
